Like-named read-outs stand apart in the source and are kept apart here.
Experiments:
5-LO [1] = tested on: 5-LO; parameters: method as in PMID 23871907; details: cited from earlier work
mPGES-1 = tested on: mPGES-1; parameters: method as in PMID 23871907; details: cited from earlier work
12-LO = target: T1, 12-LO (Homo sapiens, UniProt P18054); assay: 12-LO product formation in intact human PMNL; type: cell-based; details: for IC50: PMNL, 2.5 μM A23187 plus 20 μM AA, read-out: LTC4; for effect on 12-LO activity: at 10 μM
T1 construct: endogenous in cells; host or cells: human PMNL preparations
T1 sequence (P18054 1-663): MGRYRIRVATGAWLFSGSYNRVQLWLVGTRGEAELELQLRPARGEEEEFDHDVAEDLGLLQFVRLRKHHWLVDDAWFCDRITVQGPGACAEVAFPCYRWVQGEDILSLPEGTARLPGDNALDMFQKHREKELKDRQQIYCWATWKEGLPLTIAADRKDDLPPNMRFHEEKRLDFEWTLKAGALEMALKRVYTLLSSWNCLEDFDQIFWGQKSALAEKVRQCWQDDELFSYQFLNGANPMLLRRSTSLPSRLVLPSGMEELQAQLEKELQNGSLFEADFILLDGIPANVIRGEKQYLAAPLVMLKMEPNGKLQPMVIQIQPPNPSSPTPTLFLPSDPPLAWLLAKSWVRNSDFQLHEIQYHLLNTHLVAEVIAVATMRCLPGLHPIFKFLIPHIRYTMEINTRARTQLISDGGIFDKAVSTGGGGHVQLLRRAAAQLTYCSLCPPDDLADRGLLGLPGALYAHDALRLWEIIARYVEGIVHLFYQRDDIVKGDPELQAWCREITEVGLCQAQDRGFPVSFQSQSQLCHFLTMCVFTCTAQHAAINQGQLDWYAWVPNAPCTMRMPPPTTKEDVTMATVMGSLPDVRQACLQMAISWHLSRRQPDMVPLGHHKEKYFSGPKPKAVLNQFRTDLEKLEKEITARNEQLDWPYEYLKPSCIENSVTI

human PMNLs = assay: Lactate dehydrogenase release (LDH assay) in PMNL; type: cell-based
Protocol: After treatment of PMNL, supernatants were centrifuged (600g × 5 min, 4 °C), and 100 μL of supernatant were mixed with 200 μL LDH reaction buffer (75 mM Tris/HCl, pH 7.4, 0.3 mM NADH, 1.5 mM Na-pyruvate) in a 96-well plate. The decrease of NADH was measured immediately by absorbance at 340 nm in a kinetic mode (every 7 s for 20 min; Multiskan Spectrum). As a positive control for maximal LDH release, cells treated with 1 % Triton X-100 were included in each experiment, while untreated cells and vehicle (DMSO) served as negative controls.

5-LO [2] = target: T2, 5-LO (Homo sapiens, UniProt P09917); assay: cell-free 5-LO activity assay with purified human recombinant 5-LO; type: biochemical; parameters: made in house; details: for IC50: purified human recombinant 5-LO, 20 μM AA, read-out: Cell-free (IC50 of 5-LO activity); for 5-LO inhibition in the cell free assay: up to 10 μM
T2 sequence (P09917 1-674): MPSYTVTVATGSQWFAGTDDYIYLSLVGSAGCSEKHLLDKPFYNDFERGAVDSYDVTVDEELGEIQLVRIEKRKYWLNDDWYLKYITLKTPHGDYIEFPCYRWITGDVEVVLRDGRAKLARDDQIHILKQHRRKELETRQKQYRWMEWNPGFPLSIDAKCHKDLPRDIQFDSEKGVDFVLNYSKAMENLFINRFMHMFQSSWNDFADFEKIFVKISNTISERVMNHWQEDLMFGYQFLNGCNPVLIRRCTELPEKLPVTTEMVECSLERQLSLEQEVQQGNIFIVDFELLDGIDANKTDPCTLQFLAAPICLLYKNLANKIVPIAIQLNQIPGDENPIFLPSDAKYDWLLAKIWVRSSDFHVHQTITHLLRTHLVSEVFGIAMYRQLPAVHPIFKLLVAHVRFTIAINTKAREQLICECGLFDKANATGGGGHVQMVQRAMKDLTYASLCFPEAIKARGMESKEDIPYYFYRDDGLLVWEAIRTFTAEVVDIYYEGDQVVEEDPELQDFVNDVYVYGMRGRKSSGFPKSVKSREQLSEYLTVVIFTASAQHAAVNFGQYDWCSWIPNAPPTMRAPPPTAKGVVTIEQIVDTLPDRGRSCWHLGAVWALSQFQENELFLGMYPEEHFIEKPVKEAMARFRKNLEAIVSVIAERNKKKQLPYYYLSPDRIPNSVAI
Protocol: 5-LO was expressed in E. coli B121 (DE3) transformed with pT3- 5LO plasmid, and purification of 5-LO was performed as described previously. Briefly, E. coli was lysed in 50 mM tri-ethanolamine/HCl, pH 8.0, 5 mM EDTA, […] soybean trypsin inhibitor, 1 mM phenylmethanesulfonyl fluoride, 1 mM dithiothreitol and 1 mg/mL lysozyme and then sonified (3 × 15 s). The homogenate was then centrifuged at 40,000g for 20 min at 4°C. 5-LO in the supernatant was partially purified by affinity chromatography on an ATP-agarose column (Sigma-Aldrich). Semi-purified 5-LO was diluted in PBS containing EDTA (1 mM) and ATP (1 mM) and immediately used for 5-LO activity assays. Samples were pre-incubated with the test compounds or vehicle (0.1 % DMSO) for 10 min at 4°C. Samples were pre-warmed for 30 s at 37°C, and 2 mM CaCl2 plus the indicated concentrations of AA were added to start 5-LO product formation. The reaction was stopped after 10 min by addition of one volume of ice-cold methanol, and the formed metabolites were analyzed by HPLC. 5- LO products include the all-trans isomers of LTB4 as well as 5-HPETE and its corresponding alcohol 5-HETE.

5-LO [3] = target: T2, 5-LO; assay: 5-LO product formation in intact human PMNL (neutrophils); type: cell-based; parameters: endogenous in cells; host or cells: human PMNL from peripheral blood of healthy volunteers; details: intact human PMNL
Protocol: PMNL and monocytes were isolated from human peripheral blood of adult healthy volunteers, with consent, obtained from the Institute of Transfusion Medi-cine, University Hospital Jena (Germany). PMNL were immediately isolated by dextran sedi-mentation, centrifugation on Nycoprep cushions, and hypotonic lysis of erythrocytes, as described. PMNL viability was analyzed by trypan blue exclusion with a Vi-cell counter (Beckmann Coulter GmbH, Krefeld). HEK-293 cells were grown in DMEM/High Glucose (4.5 g/L) medium supplemented with heat-inactivated fetal calf serum (FCS, 10 %, vv_1), 100 U/mLpenicillin, and 100 µg/mL streptomycin at 37 °C in a 5 % CO2 incubator. HEK-293 cells were stably transfected with 5-LO and FLAP as validated experimental cell-based model for studying the regulation of 5-LO [28]. None of the cell lines used in this study were authenticated.
Freshly isolated human PMNL (5 × 10^6) were resuspended in 1 mL PBS buffer containing 1 mg/mL glucose (PG buffer). […] After 10 min at 37 °C, the reaction was stopped with 1 mL of methanol for 10 min on ice and LO products formed and released in the supernatants were extracted and analyzed by HPLC. In detail, after centrifugation (800g, 10 min, room temperature) the samples were applied to C-18 solid-phase extraction columns (100 mg; IST, Mid Glamorgan, United Kingdom), preconditioned with 1 mL methanol and 1 mL water. The columns were washed with 1 mL water and 1 mL water/methanol (75/25, vol/vol) and 5-LO metabolites were eluted with 300 μL methanol. The extract was then diluted with 120 μL water, and 100 μL diluted extract were analyzed by HPLC using a C-18 Radial-Pak column (Waters) eluted with methanol/water/acetic acid 75/25/0.1 (vol/vol/vol) at a flow rate of 1.2 mL/min. Amounts of different metabolites were determined by peak area integration. 5-LO products analyzed include LTB4 and its two all-trans isomers, 5(S)-hydroxy-6-trans-8,11,14-cis-eicosatetraenoic acid (5-HETE), and 5(S)-hydroper-oxy-6-trans-8,11,14-cis-eicosatetraenoic acid (5-HpETE). 5-HETE and 5-HpETE coelute as one major peak, and the integration of this peak represented both eicosanoids.

5-lipoxygenase (5-LO) [4] = target: 5-lipoxygenase (5-LO); parameters: method as in PMID 31523435; details: read-out: IC50 in isolated human neutrophils; cited from earlier work
5-lipoxygenase (5-LO) [5] = target: 5-lipoxygenase (5-LO); parameters: method as in PMID 31523435; details: read-out: IC50 in whole blood; cited from earlier work
[6] = […] A23187 plus 20 μM AA, 10 min, read-out: Cell-based A23187 + AA (IC50 of 5-LO product formation)

SMILES	IC50 (5-LO [1]) [nM]	IC50 (mPGES-1) [nM]	IC50 (12-LO) [nM]	effect on 12-LO activity (12-LO)	cytotoxicity on PMNL (LDH levels in the supernatants) (human PMNLs)	IC50 (5-LO [2]) [nM]	5-LO inhibition in the cell free assay (5-LO [2])	IC50 (5-LO [3]; [6]) [nM]	IC50 (5-lipoxygenase (5-LO) [4]) [nM]	IC50 (5-lipoxygenase (5-LO) [5]) [nM]	IC50 (5-LO [3]; […] A23187, 10 min, read-out: Cell-based A23187 (IC50 of 5-LO product formation)) [nM]
CCCCCCCCCCCC1=C(O)C(=O)C=C(O)C1=O [embelin]	60	200									
CCCCCCCCCCCCCCCc1cccc(OC(C)=O)c1OC(C)=O [AS, 1,2-diacetoxy-3-pentadecylbenzene]			> 10000	no significant effect	comparable to those of untreated controls	> 10000	No significant 5-LO inhibition	> 10000			
O=C(/C=C/c1ccc(O)c(O)c1)OCCc1ccccc1 [CAPE, Caffeic acid phenethyl ester]									500	1800	
CCCC/C=C\CCCCCCCCCc1cccc(OC(C)=O)c1OC(C)=O [AI, (Z)-1,2-diacetoxy-3-(pentadec-10′-enyl)-benzene]			> 10000	no significant effect	comparable to those of untreated controls	> 10000	No significant 5-LO inhibition	1500 ± 1400			> 10000
